Reference: ChEMBL document CHEMBL4507264, “Data for DCP probe BAY-7598” (2021)

Assays:
[1] = target: Ephrin type-A receptor 7 (Homo sapiens) (UniProt Q15375); conditions: Compound concentration 1000.0 nM
[2] = target: Protein-tyrosine kinase 6 (Homo sapiens) (UniProt Q13882); conditions: Compound concentration 1000.0 nM
[3] = target: Ribosomal protein S6 kinase alpha-6 (Homo sapiens) (UniProt Q9UK32); conditions: Compound concentration 1000.0 nM
[4] = target: Casein kinase I isoform alpha-like (Homo sapiens) (UniProt Q8N752); conditions: Compound concentration 1000.0 nM
[5] = target: Cytoplasmic tyrosine-protein kinase BMX (Homo sapiens) (UniProt P51813); conditions: Compound concentration 1000.0 nM
[6] = tested on: Mast/stem cell growth factor receptor Kit (Homo sapiens), P10721 [L576P]; conditions: Compound concentration 1000.0 nM
[7] = target: Phosphatidylinositol 4-phosphate 5-kinase type-1 alpha (Homo sapiens) (UniProt Q99755); conditions: Compound concentration 1000.0 nM
[8] = target: Alpha-2C adrenergic receptor (Homo sapiens) (UniProt P18825); conditions: Compound concentration 10.0 uM
[9] = target: Platelet-derived growth factor receptor alpha (Homo sapiens) (UniProt P16234); conditions: Compound concentration 1000.0 nM
[10] = target: Dual specificity protein kinase CLK3 (Homo sapiens) (UniProt P49761); conditions: Compound concentration 1000.0 nM
[11] = target: Dual specificity protein kinase CLK2 (Homo sapiens) (UniProt P49760); conditions: Compound concentration 1000.0 nM
[12] = target: Serine/threonine-protein kinase Nek5 (Homo sapiens) (UniProt Q6P3R8); conditions: Compound concentration 1000.0 nM
[13] = target: Misshapen-like kinase 1 (Homo sapiens) (UniProt Q8N4C8); conditions: Compound concentration 1000.0 nM
[14] = tested on: Epidermal growth factor receptor (Homo sapiens), P00533 [T790M]; conditions: Compound concentration 1000.0 nM
[15] = target: Serine/threonine-protein kinase Nek7 (Homo sapiens) (UniProt Q8TDX7); conditions: Compound concentration 1000.0 nM
[16] = target: Beta-adrenergic receptor kinase 1 (Homo sapiens) (UniProt P25098); conditions: Compound concentration 1000.0 nM
[17] = tested on: Receptor-type tyrosine-protein kinase FLT3 (Homo sapiens), P36888 [UNDEFINED MUTATION]; conditions: Compound concentration 1000.0 nM
[18] = target: Insulin receptor-related protein (Homo sapiens) (UniProt P14616); conditions: Compound concentration 1000.0 nM
[19] = target: LIM domain kinase 2 (Homo sapiens) (UniProt P53671); conditions: Compound concentration 1000.0 nM
[20] = target: Non-receptor tyrosine-protein kinase TNK1 (Homo sapiens) (UniProt Q13470); conditions: Compound concentration 1000.0 nM
[21] = target: Cyclin-dependent kinase 4 (Homo sapiens) (UniProt P11802); conditions: Compound concentration 1000.0 nM
[22] = target: Rhodopsin kinase GRK7 (Homo sapiens) (UniProt Q8WTQ7); conditions: Compound concentration 1000.0 nM
[23] = target: Casein kinase I isoform gamma-2 (Homo sapiens) (UniProt P78368); conditions: Compound concentration 1000.0 nM
[24] = target: Mitogen-activated protein kinase 3 (Homo sapiens) (UniProt P27361); conditions: Compound concentration 1000.0 nM
[25] = target: Phosphatidylinositol 5-phosphate 4-kinase type-2 beta (Homo sapiens) (UniProt P78356); conditions: Compound concentration 1000.0 nM
[26] = target: Mitogen-activated protein kinase kinase kinase 15 (Homo sapiens) (UniProt Q6ZN16); conditions: Compound concentration 1000.0 nM
[27] = target: Serine/threonine-protein kinase 38 (Homo sapiens) (UniProt Q15208); conditions: Compound concentration 1000.0 nM
[28] = target: Ephrin type-A receptor 6 (Homo sapiens) (UniProt Q9UF33); conditions: Compound concentration 1000.0 nM
[29] = target: Fibroblast growth factor receptor 1 (Homo sapiens) (UniProt P11362); conditions: Compound concentration 1000.0 nM
[30] = target: Tyrosine-protein kinase Fer (Homo sapiens) (UniProt P16591); conditions: Compound concentration 1000.0 nM
[31] = target: BDNF/NT-3 growth factors receptor (Homo sapiens) (UniProt Q16620); conditions: Compound concentration 1000.0 nM
[32] = target: Mitogen-activated protein kinase kinase kinase 6 (Homo sapiens) (UniProt O95382); conditions: Compound concentration 1000.0 nM
[33] = target: Atypical kinase COQ8B, mitochondrial (Homo sapiens) (UniProt Q96D53); conditions: Compound concentration 1000.0 nM
[34] = target: Casein kinase I isoform delta (Homo sapiens) (UniProt P48730); conditions: Compound concentration 1000.0 nM
[35] = tested on: Tyrosine-protein kinase ABL1 (Homo sapiens), P00519 [Q252H]; conditions: Compound concentration 1000.0 nM
[36] = target: Serine/threonine-protein kinase Nek1 (Homo sapiens) (UniProt Q96PY6); conditions: Compound concentration 1000.0 nM
[37] = target: Myosin light chain kinase, smooth muscle (Homo sapiens) (UniProt Q15746); conditions: Compound concentration 1000.0 nM
[38] = target: Dual specificity mitogen-activated protein kinase kinase 4 (Homo sapiens) (UniProt P45985); conditions: Compound concentration 1000.0 nM
[39] = target: Inhibitor of nuclear factor kappa-B kinase subunit beta (Homo sapiens) (UniProt O14920); conditions: Compound concentration 1000.0 nM
[40] = target: D(2) dopamine receptor (Homo sapiens) (UniProt P14416); conditions: Compound concentration 10.0 uM
[41] = tested on: Tyrosine-protein kinase ABL1 (Homo sapiens), P00519 [T315I]; conditions: Compound concentration 1000.0 nM
[42] = target: Ribosomal protein S6 kinase alpha-4 (Homo sapiens) (UniProt O75676); conditions: Compound concentration 1000.0 nM
[43] = target: Serine/threonine-protein kinase MRCK gamma (Homo sapiens) (UniProt Q6DT37); conditions: Compound concentration 1000.0 nM
[44] = target: Myosin-IIIa (Homo sapiens) (UniProt Q8NEV4); conditions: Compound concentration 1000.0 nM
[45] = target: Serine/threonine-protein kinase ULK2 (Homo sapiens) (UniProt Q8IYT8); conditions: Compound concentration 1000.0 nM

Tyrosine-protein kinase Fer (Homo sapiens), sequence (P16591 whole entry, looked up): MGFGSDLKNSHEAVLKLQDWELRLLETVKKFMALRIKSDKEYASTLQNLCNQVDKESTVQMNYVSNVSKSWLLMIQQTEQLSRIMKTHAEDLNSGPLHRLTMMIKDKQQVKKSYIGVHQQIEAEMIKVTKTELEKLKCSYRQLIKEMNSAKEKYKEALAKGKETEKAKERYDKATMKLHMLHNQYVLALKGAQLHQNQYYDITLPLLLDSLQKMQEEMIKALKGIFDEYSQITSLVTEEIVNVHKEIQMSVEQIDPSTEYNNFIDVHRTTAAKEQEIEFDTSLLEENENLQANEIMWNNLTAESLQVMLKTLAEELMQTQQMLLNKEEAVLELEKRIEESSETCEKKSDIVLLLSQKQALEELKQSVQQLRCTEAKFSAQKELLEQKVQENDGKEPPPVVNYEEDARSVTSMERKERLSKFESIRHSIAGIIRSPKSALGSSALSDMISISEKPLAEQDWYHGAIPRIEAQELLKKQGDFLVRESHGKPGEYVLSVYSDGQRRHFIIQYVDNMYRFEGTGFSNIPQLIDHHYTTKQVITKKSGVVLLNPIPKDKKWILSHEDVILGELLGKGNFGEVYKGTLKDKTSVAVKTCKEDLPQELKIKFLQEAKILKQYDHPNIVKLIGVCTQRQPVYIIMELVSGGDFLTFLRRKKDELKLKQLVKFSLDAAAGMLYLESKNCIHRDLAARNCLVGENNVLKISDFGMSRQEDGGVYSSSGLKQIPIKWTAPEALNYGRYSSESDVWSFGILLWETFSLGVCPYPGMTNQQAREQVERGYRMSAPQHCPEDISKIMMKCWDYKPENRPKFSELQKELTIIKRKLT
Alpha-2C adrenergic receptor (Homo sapiens), sequence (P18825 whole entry): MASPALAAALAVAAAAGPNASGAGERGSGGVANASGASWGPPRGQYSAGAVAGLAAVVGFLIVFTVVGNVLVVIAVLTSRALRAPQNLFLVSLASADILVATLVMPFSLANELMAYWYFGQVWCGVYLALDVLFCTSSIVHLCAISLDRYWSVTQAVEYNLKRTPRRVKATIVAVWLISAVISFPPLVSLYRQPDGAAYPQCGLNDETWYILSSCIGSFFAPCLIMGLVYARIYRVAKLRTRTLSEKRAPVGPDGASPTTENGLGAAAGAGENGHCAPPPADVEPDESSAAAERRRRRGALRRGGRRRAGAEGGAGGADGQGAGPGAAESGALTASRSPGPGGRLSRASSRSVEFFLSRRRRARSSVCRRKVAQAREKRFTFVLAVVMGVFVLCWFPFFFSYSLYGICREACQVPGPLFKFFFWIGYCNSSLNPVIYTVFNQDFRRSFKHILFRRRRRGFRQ
Mast/stem cell growth factor receptor Kit (Homo sapiens), P10721 [L576P], sequence (P10721 whole entry L576P): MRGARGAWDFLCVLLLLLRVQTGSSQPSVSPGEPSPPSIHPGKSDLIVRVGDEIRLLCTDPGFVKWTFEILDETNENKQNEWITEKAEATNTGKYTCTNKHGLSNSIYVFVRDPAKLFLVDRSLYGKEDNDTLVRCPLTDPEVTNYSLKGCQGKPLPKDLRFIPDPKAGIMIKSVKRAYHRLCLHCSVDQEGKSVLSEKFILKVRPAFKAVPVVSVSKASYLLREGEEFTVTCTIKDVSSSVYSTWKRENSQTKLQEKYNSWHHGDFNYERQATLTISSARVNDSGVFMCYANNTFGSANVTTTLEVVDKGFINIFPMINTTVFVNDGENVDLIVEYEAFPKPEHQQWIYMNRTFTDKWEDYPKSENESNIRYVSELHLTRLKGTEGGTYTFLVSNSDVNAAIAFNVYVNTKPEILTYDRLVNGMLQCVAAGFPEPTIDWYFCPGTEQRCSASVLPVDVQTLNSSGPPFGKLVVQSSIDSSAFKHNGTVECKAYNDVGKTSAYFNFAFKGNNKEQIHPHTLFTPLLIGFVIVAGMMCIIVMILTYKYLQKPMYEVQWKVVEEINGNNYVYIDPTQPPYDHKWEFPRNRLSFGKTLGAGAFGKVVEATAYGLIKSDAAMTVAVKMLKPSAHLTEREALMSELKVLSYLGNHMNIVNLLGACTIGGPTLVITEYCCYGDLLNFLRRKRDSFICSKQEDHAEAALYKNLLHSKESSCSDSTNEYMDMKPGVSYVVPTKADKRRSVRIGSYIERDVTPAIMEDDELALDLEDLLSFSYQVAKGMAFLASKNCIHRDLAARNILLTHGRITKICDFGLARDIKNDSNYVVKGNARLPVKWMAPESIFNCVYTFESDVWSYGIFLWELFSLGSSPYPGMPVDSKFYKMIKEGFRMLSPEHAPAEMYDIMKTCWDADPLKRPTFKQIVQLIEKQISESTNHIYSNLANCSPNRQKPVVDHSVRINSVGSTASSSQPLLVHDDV
Ribosomal protein S6 kinase alpha-6 (Homo sapiens), sequence (Q9UK32 whole entry, canonical isoform): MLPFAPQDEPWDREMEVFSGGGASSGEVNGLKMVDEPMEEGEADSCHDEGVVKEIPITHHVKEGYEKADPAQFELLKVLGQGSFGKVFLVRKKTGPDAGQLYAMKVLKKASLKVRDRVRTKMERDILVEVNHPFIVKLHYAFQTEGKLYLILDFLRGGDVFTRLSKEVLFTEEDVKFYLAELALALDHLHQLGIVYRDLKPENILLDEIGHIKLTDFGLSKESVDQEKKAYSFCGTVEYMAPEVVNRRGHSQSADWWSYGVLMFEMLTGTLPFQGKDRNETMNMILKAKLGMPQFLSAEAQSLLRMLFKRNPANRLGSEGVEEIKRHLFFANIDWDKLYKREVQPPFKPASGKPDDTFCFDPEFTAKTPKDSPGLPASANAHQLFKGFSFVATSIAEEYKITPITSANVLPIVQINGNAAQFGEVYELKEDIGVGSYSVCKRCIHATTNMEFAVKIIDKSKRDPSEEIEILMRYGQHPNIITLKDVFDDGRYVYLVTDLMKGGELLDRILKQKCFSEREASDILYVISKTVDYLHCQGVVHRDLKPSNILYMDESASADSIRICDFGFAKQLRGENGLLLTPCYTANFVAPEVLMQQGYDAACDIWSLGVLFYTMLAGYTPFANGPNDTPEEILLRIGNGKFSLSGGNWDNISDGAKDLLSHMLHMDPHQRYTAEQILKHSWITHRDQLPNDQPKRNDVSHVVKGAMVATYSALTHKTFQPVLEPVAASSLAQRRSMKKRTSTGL
Serine/threonine-protein kinase Nek7 (Homo sapiens), sequence (Q8TDX7 whole entry, looked up): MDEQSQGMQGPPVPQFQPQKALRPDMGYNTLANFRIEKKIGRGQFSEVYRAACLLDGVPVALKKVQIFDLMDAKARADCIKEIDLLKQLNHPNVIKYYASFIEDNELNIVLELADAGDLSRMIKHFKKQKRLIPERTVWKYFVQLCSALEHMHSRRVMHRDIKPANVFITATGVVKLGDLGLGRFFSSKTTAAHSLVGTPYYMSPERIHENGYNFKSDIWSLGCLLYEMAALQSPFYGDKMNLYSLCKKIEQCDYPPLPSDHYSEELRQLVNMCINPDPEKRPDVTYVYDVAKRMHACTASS
Dual specificity protein kinase CLK3 (Homo sapiens), sequence (P49761 whole entry, looked up): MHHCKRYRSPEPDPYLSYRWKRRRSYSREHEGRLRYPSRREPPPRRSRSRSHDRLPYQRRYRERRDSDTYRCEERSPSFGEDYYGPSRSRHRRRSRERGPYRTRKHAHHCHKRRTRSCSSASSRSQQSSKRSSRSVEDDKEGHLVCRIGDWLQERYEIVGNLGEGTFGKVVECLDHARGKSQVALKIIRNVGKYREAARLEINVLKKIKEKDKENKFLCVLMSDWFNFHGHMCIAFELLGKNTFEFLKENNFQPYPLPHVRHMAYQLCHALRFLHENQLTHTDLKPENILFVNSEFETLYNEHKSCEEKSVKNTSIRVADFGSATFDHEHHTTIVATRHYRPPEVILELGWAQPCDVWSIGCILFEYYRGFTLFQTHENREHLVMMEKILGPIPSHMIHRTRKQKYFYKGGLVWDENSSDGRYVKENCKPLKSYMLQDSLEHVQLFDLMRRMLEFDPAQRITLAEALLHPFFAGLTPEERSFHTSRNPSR
Receptor-type tyrosine-protein kinase FLT3 (Homo sapiens), P36888 [UNDEFINED MUTATION], sequence (P36888 whole entry, looked up, stated change not applied): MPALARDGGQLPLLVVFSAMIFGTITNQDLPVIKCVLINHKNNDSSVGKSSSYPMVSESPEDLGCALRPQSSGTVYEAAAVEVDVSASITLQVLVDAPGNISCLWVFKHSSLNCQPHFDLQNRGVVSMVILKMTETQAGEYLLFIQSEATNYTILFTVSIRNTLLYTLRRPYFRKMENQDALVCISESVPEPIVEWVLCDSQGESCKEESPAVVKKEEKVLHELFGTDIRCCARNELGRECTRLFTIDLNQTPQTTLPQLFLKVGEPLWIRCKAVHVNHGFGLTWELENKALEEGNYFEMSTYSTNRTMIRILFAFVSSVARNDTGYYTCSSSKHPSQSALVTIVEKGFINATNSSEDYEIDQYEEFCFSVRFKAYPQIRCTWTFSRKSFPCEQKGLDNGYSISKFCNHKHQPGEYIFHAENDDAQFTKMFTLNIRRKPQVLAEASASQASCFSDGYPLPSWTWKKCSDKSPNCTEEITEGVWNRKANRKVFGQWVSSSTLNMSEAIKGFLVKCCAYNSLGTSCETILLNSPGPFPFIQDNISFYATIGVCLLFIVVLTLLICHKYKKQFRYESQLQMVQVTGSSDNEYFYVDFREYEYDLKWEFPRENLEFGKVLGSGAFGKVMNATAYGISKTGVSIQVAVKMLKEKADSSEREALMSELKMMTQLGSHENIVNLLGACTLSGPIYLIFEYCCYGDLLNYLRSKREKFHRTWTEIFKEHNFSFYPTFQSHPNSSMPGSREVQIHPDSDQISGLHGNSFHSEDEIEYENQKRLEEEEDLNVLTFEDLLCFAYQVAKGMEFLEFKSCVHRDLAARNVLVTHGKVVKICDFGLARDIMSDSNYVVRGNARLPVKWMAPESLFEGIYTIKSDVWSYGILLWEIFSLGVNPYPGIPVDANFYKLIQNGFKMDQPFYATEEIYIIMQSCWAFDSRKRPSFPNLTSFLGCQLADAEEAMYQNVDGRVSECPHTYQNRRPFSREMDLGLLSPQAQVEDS

O=C(O)[C@@H]1[C@@H](Cn2nnc3ccccc3c2=O)CC[C@H]1C(=O)c1ccc(OCCC2CCOCC2)cc1 [BAY-694]
inactive: residual activity [1] 100% | residual activity [2] 99% | residual activity [3] 100% | residual activity [4] 100% | residual activity [5] 100% | residual activity [6] 100% | residual activity [7] 94% | inhibition [8] 13.1% | residual activity [9] 100% | residual activity [10] 91% | residual activity [11] 100% | residual activity [12] 100% | residual activity [13] 100% | residual activity [14] 94% | residual activity [15] 100% | residual activity [16] 78% | residual activity [17] 100% | residual activity [18] 100% | residual activity [19] 100% | residual activity [20] 100% | residual activity [21] 86% | residual activity [22] 100% | residual activity [23] 100% | residual activity [24] 100% | residual activity [25] 81% | residual activity [26] 54% | residual activity [27] 95% | residual activity [28] 97% | residual activity [29] 100% | residual activity [30] 87% | residual activity [31] 93% | residual activity [32] 79% | residual activity [33] 64% | residual activity [34] 100% | residual activity [35] 92% | residual activity [36] 100% | residual activity [37] 100% | residual activity [38] 100% | residual activity [39] 100% | inhibition [40] -5.06% | residual activity [41] 100% | residual activity [42] 100% | residual activity [43] 100% | residual activity [44] 93% | residual activity [45] 90%

O=C(O)[C@H]1[C@H](Cn2nnc3ccccc3c2=O)CC[C@@H]1C(=O)c1ccc(OCCC2CCOCC2)cc1 [BAY-7598]
inactive: residual activity [1] 100% | residual activity [2] 100% | residual activity [3] 86% | residual activity [4] 100% | residual activity [5] 92% | residual activity [6] 96% | residual activity [7] 88% | inhibition [8] 8.3% | residual activity [9] 100% | residual activity [10] 100% | residual activity [11] 100% | residual activity [12] 97% | residual activity [13] 100% | residual activity [14] 77% | residual activity [15] 100% | residual activity [16] 61% | residual activity [17] 93% | residual activity [18] 81% | residual activity [19] 90% | residual activity [20] 100% | residual activity [21] 96% | residual activity [22] 100% | residual activity [23] 87% | residual activity [24] 94% | residual activity [25] 84% | residual activity [26] 64% | residual activity [27] 88% | residual activity [28] 85% | residual activity [29] 98% | residual activity [30] 90% | residual activity [31] 75% | residual activity [32] 91% | residual activity [33] 87% | residual activity [34] 100% | residual activity [35] 83% | residual activity [36] 82% | residual activity [37] 74% | residual activity [38] 97% | residual activity [39] 100% | inhibition [40] 30.3% | residual activity [41] 79% | residual activity [42] 100% | residual activity [43] 93% | residual activity [44] 100% | residual activity [45] 100%
